What was measured:
[1] = system: European honey bees, Apis mellifera; experiment: Longevity of healthy adult worker bees in cage study after MBCD treatment; format: in vivo; conditions: healthy newly emerged bees, versus control
Method: This example illustrates the baseline effects of the inventive composition in the absence of an exogenous stressor. Samples of European honey bees, Apis mellifera, were collected from colonies maintained in the apiaries of the USDA-ARS Bee Research Laboratory in Beltsville, Md. Frames with emerging brood were removed from colonies and individually placed in a mesh-walled cage. The cages were transferred to an insect growth chamber at 34° C. and 70% humidity. After 24 hrs incubation, newly emerged honey bees were transferred to a honey bee rearing cup, with a top-feeder design, allowing for easy sampling of honey bees (see e.g., Evans et al., 2009). A 3 mL syringe filled with 50% sugar syrup mixture was inverted over the top of the rearing cup to provision the caged honey bees. The honey bees were also provisioned with 1.5 grams of honey bee pollen supplement in patty form (e.g., Bee-Pro®, available from Mann Lake Ltd, Hackensack, Minn.), supplemented 10% (w/w) with ground fresh pollen, and placed on cotton paper on the cup cage bottoms. Syringes and sucrose solution were changed every 3 days and cotton paper was changed once per week.
Newly emerged honey bees were placed in individual cages (n=30 bees per cage & 2 replicate cages per treatment) and fed using a syringe filled with 50% sucrose alone or supplemented with either 1, 10, or 100 μg MBCD per bee/per week. […]

[2] = system: Deformed wing virus (DWV); experiment: Viral load (RT-qPCR) in virus-infected honey bees after MBCD treatment; format: in vivo, Apis mellifera; conditions: 10 μg/bee MBCD; for decrease in DWV (+) sense viral genome: versus untreated infected bees
Method: The presence of DWV and Varroa destructor was determined as follows. Total RNA was extracted from whole body 12 individual honey bees using the TRIzol Reagent® (available from Thermo Fisher Scientific, Waltham, Mass.) by manufacturers specifications, and stored at −80° C. First-strand cDNA was synthesized using the Superscript III Reverse Transcriptase (available in a kit from Thermo Fisher Scientific). Briefly, each reaction contained: 3 μl total bee RNA (˜1 μg/μl), 1 μl of 10 mM dNTPs, 1 μl random primers (0.15 μg/μl), 1 μL of Oligo(dT), 1 μl of 0.1 M DTT (0.1 M), 4 μl 5×First-Strand Buffer, 1 uL of 200 U/μL RnaseOUT, 1 μl of 200 U/μl SuperScript III Reverse Transcriptase, and 7 μl Nuclease-free water. The reaction mixture was incubated at 25° C. for 5 min, 55° C. for 2 hrs, and 70° C. for 15 min, then stored at −20° C. until use. Transcript levels (RT-qPCR analysis) were quantified using the Brilliant III Ultra-Fast SYBR Green® QPCR Master Mix (Agilent Technologies, Inc., Santa Clara, Calif.) on a CFX384 Touch Real Time PCR Detection System (Bio-Rad Laboratories, Inc., Hercules, Calif.). Samples were incubated at 95° C. for 5 min, followed by 40 cycles of 95° C. for 20 s, 59° C. for 20 s, and 72° C. for 20 s. Thereafter, a melt curve analysis from 65° C. to 95° C. was performed to confirm product specificity. For the detection and quantification of negative stranded bee viruses, replication intermediates, TAG-DWV primers were substituted for random primers or oligos (see e.g., Boncristiani et al., 2009). The fold difference in viral concentration among different treatment groups was determined using the comparative Ct method (2^−ΔΔCT method) (see e.g., Livak & Schmittgen, 2001). Calibrators were chosen as the highest average treatment ΔCt value for each experiment.
Emerging bees that had non-deformed wings (i.e., asymptomatic) were selected for a cage study (n=30 bees per cage & 6 replicate cages per treatment). […] Virally infected untreated bees were compared to bees fed 10 μg/bee MBCD in 50% sucrose solution. In FIG. 6A, DWV (+) sense viral genome titers were compared 3 and 6 days after treatment. An unpaired, 2-tailed Student's T-Test was performed to determine statistical significance (p<0.05 at 3 days feeding; N.S.=Non-significant 6 days after treatment). In FIG. 6B, DWV (−) sense replicative strand titers were compared 3 and 6 days after treatment. An unpaired, 2-tailed Student's T-Test was performed to determine statistical significance (p<0.0001 for 3 days post treatments; p=0.049 for 6 days post treatment). The “★” denotes the sample chosen as the 2^−ΔΔCT calibrator and bars denote standard error.

[3] = system: honey bees infected with Deformed wing virus; experiment: Survival of virus-infected honey bees after MBCD treatment; format: in vivo, Apis mellifera; conditions: 10 μg/bee MBCD in 50% sucrose, untreated 6 days
Method: The presence of DWV and Varroa destructor was determined as follows. Total RNA was extracted from whole body 12 individual honey bees using the TRIzol Reagent® (available from Thermo Fisher Scientific, Waltham, Mass.) by manufacturers specifications, and stored at −80° C. First-strand cDNA was synthesized using the Superscript III Reverse Transcriptase (available in a kit from Thermo Fisher Scientific). […] Transcript levels (RT-qPCR analysis) were quantified using the Brilliant III Ultra-Fast SYBR Green® QPCR Master Mix (Agilent Technologies, Inc., Santa Clara, Calif.) on a CFX384 Touch Real Time PCR Detection System (Bio-Rad Laboratories, Inc., Hercules, Calif.). […] For the detection and quantification of negative stranded bee viruses, replication intermediates, TAG-DWV primers were substituted for random primers or oligos (see e.g., Boncristiani et al., 2009). The fold difference in viral concentration among different treatment groups was determined using the comparative Ct method (2^−ΔΔCT method) (see e.g., Livak & Schmittgen, 2001). […]
Untreated bees fed only 50% sucrose were compared to bees receiving 10 μg/bee MBCD in 50% sucrose (FIG. 7). […] Bees were measured 3 (FIG. 8A) and 6 (FIG. 8B) days post feeding. […]

Substance: methyl-β-cyclodextrin [MBCD]
- increase in median lifespan ([1]; 1 μg MBCD per bee/per week in 50% sucrose): 9 days
- increase in median lifespan ([1]; 10 μg MBCD per bee/per week in 50% sucrose): 6.5 days
- decrease in DWV (+) sense viral genome ([2]; 3 days after treatment): ~2 fold
- decrease in DWV (−) sense replicative strand ([2]; 3 days post treatment): approximately 3 fold
- decrease in DWV (−) sense replicative strand ([2]; 6 days post treatment): ~2 fold
- decrease in DWV (+) sense viral genome ([2]; 6 days post treatment): non-significant decrease
- median lifespan [3]: 9 days

Reference: US11622975B2, “Compositions and methods for improved honey bee health” (priority 2019, dated 2023)
